{"source": "patent US5668170A", "about": "“Composition and method enhancing transdermal electrotransport agent delivery” (ALZA Corporation, priority 1996, dated 1997)", "key": {"[1]": {"conditions": "for effect on skin resistance / resistivity (in words) / effect on metoclopramide mass flux (in words): compared with control without enhancer; for Normalized Cell Voltage (after 5 hrs) / Normalized Metoclopramide Mass Flux (after 5 hrs): metoclopramide HCl 100 mg/ml, 100 μA/cm^2, 32° C.; for enhancer performance (in words): metoclopramide electrotransport"}, "[2]": {"conditions": "hydrophile-lipophile balance of the enhancer; cited from earlier work"}, "[3]": {"assay": "Electrotransport of sodium ketoprofen with enhancer (Example 5)", "assay_type": "in vitro ADME, human", "conditions": "for effect of 20% ethanol solvent on enhancer performance (in words) / effect on ketoprofen mass flux (in words) / effect on skin conductivity (in words): 100 mM ketoprofen; for effect of 20% ethanol solvent on enhancer performance (in words): 20 wt % ethanol/water; for effect on ketoprofen mass flux (in words) / effect on skin conductivity (in words): water alone", "protocol": "(§1) Each floating epidermis was stretched essentially flat.\nSodium ketoprofen in aqueous solution forms an univalent anionic anti-inflammatory agent. The electrotransport delivery of 100 mM ketoprofen in the presence of cationic and non-ionic surfactants was tested under the conditions described in Example 1. The enhancers used were laurylamine and dimethyl lauramide. Two sets of tests were conducted. The first in aqueous solution, and the second in 20 wt % ethanol/water solution."}, "[4]": {"assay": "Electrotransport of di-sodium cromolyn with enhancer (Example 4)", "assay_type": "in vitro ADME, human", "conditions": "concentration not given in b26; for lowering of skin resistivity: cromolyn donor, dodecylpyrrolidone 100 mM; for increase of cromolyn flux: dodecylpyrrolidone 100 mM in donor", "excerpt": "as §1\nDi-sodium cromolyn, when in aqueous solution, forms a divalent anion. The experimental conditions were as described in Example 1, except the cromolyn donor solution was placed in the cathodic compartment 46 and the Dulbecco's phosphate buffered saline receptor solution was placed in the anodic compartment 44; and the stratum corneum layer of skin disk 42 was mounted to face the cathodic compartment 46.\nDodecylpyrrolidone, when added to the donor solution, at a concentration of 100 mM, increased cromolyn flux by 50 to 100% and lowered skin resistivity by 30 to 70%."}, "[5]": {"assay": "Micelle formation of tetracaine", "assay_type": "physicochemical", "protocol": "Tetracaine is a much less electrophilic molecule than metoclopramide since it is positively charged at its tertiary amine group, but the rest of the molecule is very hydrophobic. Concentrations of tetracaine higher than 20 mg/ml (75 mM) lead to the formation of micelles, due to the highly surfactant nature of the drug. Lower concentrations of tetracaine may lead to a better showing of the effect of the enhancer."}, "[6]": {"conditions": "for Normalized Cell Voltage (after 5 hrs): relative to no ethanol (1.00)", "protocol": "as §1\nThe prior art teaches that ethanol can be used to enhance both passive and electrically-assisted transdermal drug delivery. […] The agent utilized, metoclopramide HCl, was placed in the donor compartment at about 100 mg metoclopramide/ml, and Dulbecco's phosphate buffered saline (pH 7) was placed in the receptor compartment. The system was maintained at 32° C. and a constant electric current of 100 μA/cm^2 was applied throughout the procedure."}, "[7]": {"conditions": "tetracaine; electrotransport pretreatment with the enhancer", "experimental": "Solutions of the drug to be transported through the skin disks 42, and each of the electrotransport enhancers to be tested were placed at different times in the anodic donor compartment 44. Dulbecco's phosphate buffered saline (approximately 0.1 5N NaCl, with minor amounts of other ions, pH 7.0) was placed in the cathodic receptor compartment 46. The skin resistance was calculated from the voltages applied by the galvanostat according to Ohm's law:\nThe electrotransport of tetracaine was also conducted with surfactant flux enhancers, such as decyl methyl sulfoxide."}, "[8]": {"conditions": "relative to control without enhancer (1.00), enhancer 10 mM"}, "[9]": {"conditions": "relative to control (1.00), dodecylpyrrolidone 100 mM"}}, "note": "Values joined by “and” are separate entries in the source; they are usually repeats but may differ in a detail not shown here. Equal entries are not always repeated. Structures can show the parent of a compound that is named as a salt. Where two headings read alike, the source gives them in different places.", "data": [{"compound": "lauramphocarboxy propionate [Lauramphocarboxypropionate, reference compound]", "values": [{"measurement": "effect on skin resistance / resistivity (in words)", "setting": "[1]; metoclopramide HCl donor", "value": "did not appear to affect"}, {"measurement": "Normalized Cell Voltage (after 5 hrs)", "setting": "[1]; [8]", "value": ".93"}, {"measurement": "HLB No.", "setting": "[2]", "value": 54}]}, {"compound": "CCCCCCCCCCCCN", "note": "[Lauryl amine]", "values": [{"measurement": "effect on metoclopramide mass flux (in words)", "setting": "[1]", "value": "significantly decreased the flux"}, {"measurement": "Normalized Cell Voltage (after 5 hrs)", "setting": "[1]; [8]", "value": ".22"}, {"measurement": "Normalized Metoclopramide Mass Flux (after 5 hrs)", "setting": "[1]; [8]", "value": 0.136}, {"measurement": "HLB No.", "setting": "[2]", "value": 11}, {"measurement": "effect of 20% ethanol solvent on enhancer performance (in words)", "setting": "[3]", "value": "improved the performance of both enhancers"}, {"measurement": "effect on ketoprofen mass flux (in words)", "setting": "[3]", "value": "increased mass flux"}, {"measurement": "effect on skin conductivity (in words)", "setting": "[3]", "value": "increased mass flux and skin conductivity"}]}, {"compound": "CCCCCCCCCCCCOS(=O)(=O)[O-].[Na+]", "note": "[Sodium lauryl sulfate]", "values": [{"measurement": "effect on metoclopramide mass flux (in words)", "setting": "[1]", "value": "enhanced mass flux"}, {"measurement": "enhancer performance (in words)", "setting": "[1]", "value": "superior characteristics"}, {"measurement": "Normalized Cell Voltage (after 5 hrs)", "setting": "[1]; [8]", "value": ".76"}, {"measurement": "Normalized Metoclopramide Mass Flux (after 5 hrs)", "setting": "[1]; [8]", "value": 1.64}, {"measurement": "HLB No.", "setting": "[2]", "value": 40}]}, {"compound": "CCCCCCCCCCCCN1CCCC1=O", "note": "[Dodecyl pyrrolidone]", "values": [{"measurement": "enhancer performance (in words)", "setting": "[1]; listed as dodecyl pyrrolidone", "value": "superior characteristics"}, {"measurement": "enhancer performance (in words)", "setting": "[1]; listed as dodecylpyrrolidone", "value": "very effective enhancers"}, {"measurement": "Normalized Cell Voltage (after 5 hrs)", "setting": "[1]; [9]", "value": ".35"}, {"measurement": "Normalized Metoclopramide Mass Flux (after 5 hrs)", "setting": "[1]; [9]", "value": 1.68}, {"measurement": "lowering of skin resistivity", "setting": "[4]; listed as Dodecylpyrrolidone", "value": "30 to 70", "unit": "%"}, {"measurement": "lowering of skin resistivity", "setting": "[4]; listed as dodecyl pyrrolidone", "value": "more than 30%"}, {"measurement": "increase of cromolyn flux", "setting": "[4]; listed as Dodecylpyrrolidone", "value": "50 to 100", "unit": "%"}, {"measurement": "increase of cromolyn flux", "setting": "[4]; listed as dodecyl pyrrolidone", "value": "more than 50%"}, {"measurement": "HLB No.", "setting": "[2]", "value": 8}]}, {"compound": "CCCCNc1ccc(C(=O)OCCN(C)C)cc1", "note": "[tetracaine HCl]", "values": [{"measurement": "concentration leading to the formation of micelles", "setting": "[5]", "value": "higher than 20 mg/ml and > 75 mM"}]}, {"compound": "CCCCCCCCCCCCOC(=O)C(C)O", "note": "(stereo not shown) [Lauryl lactate, reference compound]", "values": [{"measurement": "effect on skin resistance / resistivity (in words)", "setting": "[1]; metoclopramide HCl donor", "value": "reduced skin resistivity"}, {"measurement": "Normalized Cell Voltage (after 5 hrs)", "setting": "[1]; [8]", "value": ".92"}, {"measurement": "HLB No.", "setting": "[2]", "value": 4.7}]}, {"compound": "Sorbitan monolaurate [reference compound]", "values": [{"measurement": "effect on skin resistance / resistivity (in words)", "setting": "[1]; metoclopramide HCl donor", "value": "fail to have a significant effect"}, {"measurement": "Normalized Cell Voltage (after 5 hrs)", "setting": "[1]; [8]", "value": ".98"}, {"measurement": "HLB No.", "setting": "[2]", "value": 8.6}]}, {"compound": "CCO", "note": "[Ethanol, ethanol]", "values": [{"measurement": "effect on mass flux of metoclopramide (in words)", "setting": "[6]", "value": "decreased the mass flux of metoclopramide"}, {"measurement": "effect on skin conductivity (in words)", "setting": "[6]; 10 to 30 wt % ethanol", "value": "decreased the mass flux of metoclopramide and the skin conductivity"}, {"measurement": "Normalized Cell Voltage (after 5 hrs)", "setting": "[6]; ethanol 10 wt %", "value": 0.82}, {"measurement": "Normalized Cell Voltage (after 5 hrs)", "setting": "[6]; ethanol 20 wt %", "value": 0.70}, {"measurement": "Normalized Cell Voltage (after 5 hrs)", "setting": "[6]; ethanol 30 wt %", "value": 0.78}]}, {"compound": "CCCCCCCCCCCC(=O)N(C)C", "note": "[Dimethyl lauramide]", "values": [{"measurement": "effect on metoclopramide mass flux (in words)", "setting": "[1]", "value": "almost doubling of the amount of the drug delivered"}, {"measurement": "skin resistance relative to control", "setting": "[1]; metoclopramide HCl donor, dimethyl lauramide added", "value": "about one-half that of the control"}, {"measurement": "Normalized Cell Voltage (after 5 hrs)", "setting": "[1]; [8]", "value": ".45"}, {"measurement": "Normalized Metoclopramide Mass Flux (after 5 hrs)", "setting": "[1]; [8]", "value": 1.87}, {"measurement": "Normalized Cell Voltage (after 5 hrs)", "setting": "[1]; relative to control without enhancer (1.00), enhancer 10 mM, listed as dimethyl lauramide", "value": 0.45}, {"measurement": "HLB No.", "setting": "[2]", "value": 8}, {"measurement": "effect of 20% ethanol solvent on enhancer performance (in words)", "setting": "[3]", "value": "improved the performance of both enhancers"}, {"measurement": "effect on ketoprofen mass flux (in words)", "setting": "[3]", "value": "increased mass flux"}, {"measurement": "effect on skin conductivity (in words)", "setting": "[3]", "value": "increased mass flux and skin conductivity"}, {"measurement": "effect on ketoprofen flux and conductivity (in words)", "setting": "[3]; dimethyl lauramide added to ketoprofen, general description", "value": "increase in both flux and conductivity"}]}, {"compound": "CCCCCCCCCC[S+](C)[O-]", "note": "(stereo not shown) [n-Decyl methyl sulfoxide]", "values": [{"measurement": "Normalized Cell Voltage (after 5 hrs)", "setting": "[1]; [8]", "value": ".44"}, {"measurement": "HLB No.", "setting": "[2]", "value": 32}, {"measurement": "decrease of cell voltage (in words)", "setting": "[7]", "value": "highly beneficial"}]}]}
